Laboratory results from PubChem BioAssay (NCI).
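The compound was tested at five concentrations on cells cultured in 96-well plates, with a 48-hour exposure period. Here, GI50 denotes the concentration required for 50% inhibition of growth. At the TGI there is no net growth.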

What was measured:
Assay in all cases: inhibition of tumour cell growth, NCI panel, 48 h
HS 578T breast = system: HS 578T breast
PC-3 prostate = system: PC-3 prostate
SNB-19 CNS = system: SNB-19 CNS
HL-60(TB) leukemia = system: HL-60(TB) leukemia
TK-10 renal = system: TK-10 renal
SF-295 CNS = system: SF-295 CNS
UO-31 renal = system: UO-31 renal
786-0 renal = system: 786-0 renal
MDA-MB-435 = system: MDA-MB-435
MOLT-4 leukemia = system: MOLT-4 leukemia
NCI/ADR-RES ovarian = system: NCI/ADR-RES ovarian
HT29 colon = system: HT29 colon
NCI-H460 lung = system: NCI-H460 lung
HCT-15 colon = system: HCT-15 colon
OVCAR-4 ovarian = system: OVCAR-4 ovarian
RXF 393 renal = system: RXF 393 renal
MDA-MB-231 breast = system: MDA-MB-231 breast
MCF7 breast = system: MCF7 breast
SK-MEL-5 melanoma = system: SK-MEL-5 melanoma
A498 renal = system: A498 renal
SF-539 CNS = system: SF-539 CNS
SK-OV-3 ovarian = system: SK-OV-3 ovarian
CCRF-CEM leukemia = system: CCRF-CEM leukemia
COLO 205 colon = system: COLO 205 colon
SK-MEL-28 melanoma = system: SK-MEL-28 melanoma
A549 NSCLC = system: A549 NSCLC
M14 melanoma = system: M14 melanoma
HCT-116 colon = system: HCT-116 colon
SK-MEL-2 melanoma = system: SK-MEL-2 melanoma
LOX IMVI melanoma = system: LOX IMVI melanoma
EKVX NSCLC = system: EKVX NSCLC
SR leukemia = system: SR leukemia
CAKI-1 renal = system: CAKI-1 renal
SW-620 colon = system: SW-620 colon
SF-268 CNS = system: SF-268 CNS
SN12C renal = system: SN12C renal
DU-145 prostate = system: DU-145 prostate
HOP-62 NSCLC = system: HOP-62 NSCLC
OVCAR-8 ovarian = system: OVCAR-8 ovarian
UACC-257 melanoma = system: UACC-257 melanoma
HOP-92 NSCLC = system: HOP-92 NSCLC
ACHN renal = system: ACHN renal
OVCAR-5 ovarian = system: OVCAR-5 ovarian
KM12 colon = system: KM12 colon
HCC-2998 colon = system: HCC-2998 colon
IGROV1 ovarian = system: IGROV1 ovarian
U251 CNS = system: U251 CNS
UACC-62 melanoma = system: UACC-62 melanoma
SNB-75 CNS = system: SNB-75 CNS
MALME-3M melanoma = system: MALME-3M melanoma
NCI-H522 lung = system: NCI-H522 lung
T-47D breast = system: T-47D breast
BT-549 breast = system: BT-549 breast
K-562 leukemia = system: K-562 leukemia
NCI-H226 lung = system: NCI-H226 lung
RPMI-8226 leukemia = system: RPMI-8226 leukemia

For CCNC(=O)Oc1ccc(/C(=C(/C)c2ccc(OC)cc2)c2ccc(OCCN3CCCCCC3)cc2)cc1, the GI50 (HS 578T breast) was 2.48 µM, the TGI (HS 578T breast) was 11.3 µM and the GI50 (PC-3 prostate) was 2.75 µM. It also gave a TGI (PC-3 prostate) of 9.67 µM, a GI50 (SNB-19 CNS) of 5.92 µM and a TGI (SNB-19 CNS) of 12.2 µM. For the same molecule, the GI50 (HL-60(TB) leukemia) was 1.39 µM, the TGI (HL-60(TB) leukemia) was 4.59 µM and the GI50 (TK-10 renal) was 9.35 µM. For the same molecule, the TGI (TK-10 renal) was 16.5 µM, the GI50 (SF-295 CNS) was 1.15 µM and the TGI (SF-295 CNS) was 3.44 µM. It also gave a GI50 (UO-31 renal) of 1.43 µM, a TGI (UO-31 renal) of 5.53 µM and a GI50 (786-0 renal) of 1.86 µM. The TGI (786-0 renal) was 6.78 µM, the GI50 (MDA-MB-435) was 3.69 µM and the TGI (MDA-MB-435) was 10.3 µM. It also gave a GI50 (MOLT-4 leukemia) of 1.44 µM, a TGI (MOLT-4 leukemia) of 5.06 µM and a GI50 (NCI/ADR-RES ovarian) of 4.41 µM. For the same molecule, the TGI (NCI/ADR-RES ovarian) was 11.1 µM, the GI50 (HT29 colon) was 1.66 µM and the TGI (HT29 colon) was 6.08 µM. It also gave a GI50 (NCI-H460 lung) of 1.95 µM, a TGI (NCI-H460 lung) of 6.91 µM and a GI50 (HCT-15 colon) of 1.57 µM. The TGI (HCT-15 colon) was 6.68 µM, the GI50 (OVCAR-4 ovarian) was 5.16 µM and the TGI (OVCAR-4 ovarian) was 11.7 µM. The GI50 (RXF 393 renal) was 1.3 µM, the TGI (RXF 393 renal) was 5.03 µM and the GI50 (MDA-MB-231 breast) was 2.74 µM. The TGI (MDA-MB-231 breast) was 9.28 µM, the GI50 (MCF7 breast) was 0.786 µM and the TGI (MCF7 breast) was 7.41 µM. For the same molecule, the GI50 (SK-MEL-5 melanoma) was 2.23 µM, the TGI (SK-MEL-5 melanoma) was 8.13 µM and the GI50 (A498 renal) was 2.67 µM. It also gave a TGI (A498 renal) of 9.65 µM, a GI50 (SF-539 CNS) of 2.08 µM and a TGI (SF-539 CNS) of 7.74 µM. It also gave a GI50 (SK-OV-3 ovarian) of 5.01 µM, a TGI (SK-OV-3 ovarian) of 11.1 µM and a GI50 (CCRF-CEM leukemia) of 2.25 µM. The TGI (CCRF-CEM leukemia) was 33.4 µM, the GI50 (COLO 205 colon) was 1.07 µM and the TGI (COLO 205 colon) was 2.38 µM. It also gave a GI50 (SK-MEL-28 melanoma) of 1.45 µM, a TGI (SK-MEL-28 melanoma) of 4.48 µM and a GI50 (A549 NSCLC) of 3.88 µM. It also gave a TGI (A549 NSCLC) of 10.3 µM, a GI50 (M14 melanoma) of 0.913 µM and a TGI (M14 melanoma) of 1.83 µM. It also gave a GI50 (HCT-116 colon) of 2.57 µM, a TGI (HCT-116 colon) of 8.68 µM and a GI50 (SK-MEL-2 melanoma) of 5.18 µM. The TGI (SK-MEL-2 melanoma) was 11.2 µM, the GI50 (LOX IMVI melanoma) was 0.865 µM and the TGI (LOX IMVI melanoma) was 1.91 µM. It also gave a GI50 (EKVX NSCLC) of 6.39 µM, a TGI (EKVX NSCLC) of 13.5 µM and a GI50 (SR leukemia) of 1.06 µM. The TGI (SR leukemia) was 2.76 µM, the GI50 (CAKI-1 renal) was 2.34 µM and the TGI (CAKI-1 renal) was 8.3 µM. It also gave a GI50 (SW-620 colon) of 1.3 µM, a TGI (SW-620 colon) of 3.28 µM and a GI50 (SF-268 CNS) of 6.69 µM. For the same molecule, the TGI (SF-268 CNS) was 15 µM, the GI50 (SN12C renal) was 5.55 µM and the TGI (SN12C renal) was 12.1 µM. It also gave a GI50 (DU-145 prostate) of 6.76 µM, a TGI (DU-145 prostate) of 13.2 µM and a GI50 (HOP-62 NSCLC) of 5.84 µM. It also gave a TGI (HOP-62 NSCLC) of 12.3 µM, a GI50 (OVCAR-8 ovarian) of 5.72 µM and a TGI (OVCAR-8 ovarian) of 12.2 µM. For the same molecule, the GI50 (UACC-257 melanoma) was 1.06 µM, the TGI (UACC-257 melanoma) was 2.76 µM and the GI50 (HOP-92 NSCLC) was 1.89 µM. For the same molecule, the TGI (HOP-92 NSCLC) was 9.17 µM, the GI50 (ACHN renal) was 6.04 µM and the TGI (ACHN renal) was 12.2 µM. For the same molecule, the GI50 (OVCAR-5 ovarian) was 6.48 µM, the TGI (OVCAR-5 ovarian) was 12.8 µM and the GI50 (KM12 colon) was 8.88 µM. The TGI (KM12 colon) was 16.7 µM, the GI50 (HCC-2998 colon) was 2.93 µM and the TGI (HCC-2998 colon) was 9.29 µM. The GI50 (IGROV1 ovarian) was 5.42 µM, the TGI (IGROV1 ovarian) was 12.5 µM and the GI50 (U251 CNS) was 2.55 µM. For the same molecule, the TGI (U251 CNS) was 8.87 µM, the GI50 (UACC-62 melanoma) was 1.79 µM and the TGI (UACC-62 melanoma) was 6.33 µM. It also gave a GI50 (SNB-75 CNS) of 6.03 µM, a TGI (SNB-75 CNS) of 12.9 µM and a GI50 (MALME-3M melanoma) of 1.1 µM. For the same molecule, the TGI (MALME-3M melanoma) was 2.57 µM, the GI50 (NCI-H522 lung) was 6.43 µM and the TGI (NCI-H522 lung) was 13.5 µM. For the same molecule, the GI50 (T-47D breast) was 1.23 µM, the TGI (T-47D breast) was 7.88 µM and the GI50 (BT-549 breast) was 5.06 µM. It also gave a TGI (BT-549 breast) of 10.9 µM, a GI50 (K-562 leukemia) of 1.22 µM and a TGI (K-562 leukemia) of 3.37 µM. It also gave a GI50 (NCI-H226 lung) of 6.42 µM, a TGI (NCI-H226 lung) of 14.6 µM and a GI50 (RPMI-8226 leukemia) of 1.18 µM. The TGI (RPMI-8226 leukemia) was 3.21 µM.
